Results on 18 compounds are retold here after patent US10383835B2, “Treatment of inflammatory disorders in non-human mammals” (The Regents of the University of California, priority 2012, dated 2019).

One data set concerns the target Canine sEH (Canis lupus familiaris, UniProt A0A8I3NJL8). As to the kind of experiment: sEH Inhibitor Screen of Canine sEH. It is filed as biochemical. To be noted: [I] = 100 nM.
The next data set relates to COX-2 / COX-1. Particulars: cited from earlier work.
Data set [1] concerns horse with pain due to laminitis. The data set is described as follows: Pain (VAS) and blood pressure in one horse with naturally occurring laminitis, multimodal analgesic therapy. The format is in vivo. To be noted: before t-TUCB; phenylbutazone 4 mg/kg twice daily PO, gabapentin 20 mg/kg twice daily PO.
The target in the next data set is COX-2 (Equus caballus (Horse), UniProt O19183). To be noted: read-out: 80% maximal inhibitory concentration (IC80) against COX-2; cited from earlier work.
COX-2, sequence (O19183 18-604): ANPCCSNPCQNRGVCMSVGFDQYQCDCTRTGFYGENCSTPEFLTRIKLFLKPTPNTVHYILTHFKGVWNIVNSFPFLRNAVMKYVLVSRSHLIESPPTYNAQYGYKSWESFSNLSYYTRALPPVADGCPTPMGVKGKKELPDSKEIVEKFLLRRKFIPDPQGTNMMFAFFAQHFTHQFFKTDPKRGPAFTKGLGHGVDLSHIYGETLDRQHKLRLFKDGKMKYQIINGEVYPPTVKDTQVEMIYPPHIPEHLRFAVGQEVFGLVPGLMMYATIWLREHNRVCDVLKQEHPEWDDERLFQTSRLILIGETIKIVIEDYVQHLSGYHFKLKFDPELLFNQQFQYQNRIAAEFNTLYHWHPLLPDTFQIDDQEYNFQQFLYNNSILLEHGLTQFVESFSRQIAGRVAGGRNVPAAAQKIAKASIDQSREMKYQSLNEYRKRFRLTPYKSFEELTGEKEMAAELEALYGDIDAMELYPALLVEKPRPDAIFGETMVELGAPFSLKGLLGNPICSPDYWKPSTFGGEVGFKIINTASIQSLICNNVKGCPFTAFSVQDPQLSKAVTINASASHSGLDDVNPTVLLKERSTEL
For data set [2] the following is noted: human volunteers; cited from earlier work.
A short description of data set [3]: Plasma concentrations and pharmacokinetics in the laminitic horse. Particulars: gabapentin 20 mg/kg BID PO.
The next data set in a line: in vivo. To be noted: Thoroughbred, horse, iv, 0.1 mg/kg.
On the set-up of data set [4]: species or system horse. To be noted: in vivo.
The target of a further data set is sEH (Homo sapiens (Human), UniProt P34913). As to the kind of experiment: Activity as inhibitor of sEH (standard assays). The format is biochemical. The source says: Derivatives of urea are transition state mimetics that form a preferred group of sEH inhibitors. […] Any particular urea derivative or other compound can be easily tested for its ability to inhibit sEH by standard assays, such as those discussed herein. The production and testing of urea and carbamate derivatives as sEH inhibitors is set forth in detail in, for example, Morisseau et al., Proc Natl Acad Sci (USA) 96:8849-8854 (1999).
sEH, sequence (P34913 whole entry): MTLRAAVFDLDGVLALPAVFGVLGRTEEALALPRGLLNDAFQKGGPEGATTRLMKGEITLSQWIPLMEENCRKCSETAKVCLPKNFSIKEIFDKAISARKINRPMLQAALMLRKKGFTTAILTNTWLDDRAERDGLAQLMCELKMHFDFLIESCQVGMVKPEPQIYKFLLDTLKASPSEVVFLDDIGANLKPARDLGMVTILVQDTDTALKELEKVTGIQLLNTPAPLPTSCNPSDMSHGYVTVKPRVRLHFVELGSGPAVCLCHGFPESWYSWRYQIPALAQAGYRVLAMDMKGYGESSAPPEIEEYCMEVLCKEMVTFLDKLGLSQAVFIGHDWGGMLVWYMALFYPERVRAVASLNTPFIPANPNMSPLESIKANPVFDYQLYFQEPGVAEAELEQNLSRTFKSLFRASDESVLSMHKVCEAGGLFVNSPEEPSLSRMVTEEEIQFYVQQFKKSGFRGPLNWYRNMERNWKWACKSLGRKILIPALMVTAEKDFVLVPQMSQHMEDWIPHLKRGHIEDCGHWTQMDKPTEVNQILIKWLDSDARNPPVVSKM
One category of these inhibitors comprises inhibitors that mimic the substrate for the enzyme. The lipid alkoxides (e.g., the 9-methoxide of stearic acid) are an exemplar of this group of inhibitors.

Canine sEH, sequence (A0A8I3NJL8 1-556): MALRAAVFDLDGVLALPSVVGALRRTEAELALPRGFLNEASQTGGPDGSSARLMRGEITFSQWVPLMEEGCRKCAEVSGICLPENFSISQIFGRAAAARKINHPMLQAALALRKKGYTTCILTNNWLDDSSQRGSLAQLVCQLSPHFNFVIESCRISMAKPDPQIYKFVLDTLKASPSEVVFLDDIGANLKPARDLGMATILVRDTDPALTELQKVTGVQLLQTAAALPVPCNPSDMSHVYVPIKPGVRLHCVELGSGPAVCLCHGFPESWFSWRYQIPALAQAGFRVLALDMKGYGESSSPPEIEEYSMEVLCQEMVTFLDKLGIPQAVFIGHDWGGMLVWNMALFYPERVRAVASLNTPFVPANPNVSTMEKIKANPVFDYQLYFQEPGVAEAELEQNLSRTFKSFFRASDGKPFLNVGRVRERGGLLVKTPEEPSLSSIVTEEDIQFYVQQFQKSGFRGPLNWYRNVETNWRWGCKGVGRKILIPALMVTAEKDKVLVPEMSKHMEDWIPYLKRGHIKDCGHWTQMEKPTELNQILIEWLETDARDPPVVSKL

In turn, `O=C(Nc1ccc(Oc2ccc(C(=O)O)cc2)cc1)Nc1ccc(OC(F)(F)F)cc1` [compound 2803, 4-(4-(3-(4-(trifluoromethoxy)-phenyl)-ureido)-phenoxy)-benzoic acid] yielded an inhibition at 0.1 µM on Canine sEH of 82%.
Turning to `O=C1CCC(NC(=O)Nc2ccc(OC(F)(F)F)cc2)CC1` [compound 2809, 1-(4-oxocyclohexyl)-3-(4-(trifluoromethoxy)-phenyl)-urea], on Canine sEH, the inhibition at 0.1 µM was 51%.
Same read-out and setting: then `CS(=O)(=O)NC(=O)c1ccc(O[C@H]2CC[C@H](NC(=O)Nc3ccc(OC(F)(F)F)cc3)CC2)cc1` [compound 2728, N-(methylsulfonyl)-4-(trans-4-(3-(4-trifluoromethoxy-phenyl)-ureido)-cyclohexyloxy)-benzamide], with 84%; and `Cc1oc(=O)oc1COC(=O)c1ccc(O[C@H]2CC[C@H](NC(=O)Nc3ccc(OC(F)(F)F)cc3)CC2)cc1` [compound 2796, (5-methyl-2-oxo-1,3-dioxol-4-yl)methyl 4-((1r,4r)-4-(3-(4-(trifluoromethoxy)-phenyl)-ureido)-cyclohexyloxy)-benzoate], with 84%.
Regarding `CC(=O)Oc1ccccc1C(=O)O` [Aspirin], the “COX-2 (IC50)/COX-1 (IC50) ratio” value in the data set on COX-2 / COX-1 was 0.32.
Consider `CCCCC1C(=O)N(c2ccccc2)N(c2ccccc2)C1=O` [phenylbutazone], for which the “response of laminitis pain to therapy” value in data set [1] was “refractory”. Besides, on COX-2, the IC80 was around 23 µM.
`O=C(Nc1ccc(OC(F)(F)F)cc1)NC1CCC(Oc2ncccn2)CC1` (stereo not shown) [compound 2810, 1-(4-(pyrimidin-2-yloxy)-cyclohexyl)-3-(4-(trifluoromethoxy)-phenyl)-urea]: at 0.1 µM the inhibition on Canine sEH was 52%.
In the case of `NCC1(CC(=O)O)CCCCC1` [gabapentin], in data set [2], the “plasma concentration associated with analgesia” value was around 18 µM. Further, the “response of laminitis pain to therapy” value in data set [1] is listed as “refractory”. The “lowest measured plasma concentration” value in data set [3] stood at 1 µM. The “highest measured plasma concentration” value in data set [3] (first sampling five hours after dosing) was found to be 18 µM.
On Canine sEH, `O=C(Nc1ccc(OC(F)(F)F)cc1)Nc1ccc(Oc2ccc(C(=O)O)cc2)cc1F` [compound 2807, 4-(3-fluoro-4-(3-(4-(trifluoromethoxy)-phenyl)-ureido)-phenoxy)-benzoic acid] had an inhibition at 0.1 µM of 95%.
The same measure, in the same setting: then `O=C(Nc1ccc(OC(F)F)cc1)N[C@H]1CC[C@H](Oc2ccc(C(=O)O)cc2)CC1` [compound 2805, 4-(trans-4-(3-(4-(difluoromethoxy)-phenyl)-ureido)-cyclohexyloxy)-benzoic acid], with 95%; and `COC(=O)c1ccc(NC2CCC(NC(=O)Nc3ccc(OC(F)(F)F)cc3)CC2)cc1` (stereo not shown) [compound 2804, methyl 4-(4-(3-(4-(trifluoromethoxy)-phenyl)-ureido)-cyclohexylamino)-benzoate], with 49%.
`O=C(Nc1ccccc1F)N[C@H]1CC[C@H](Oc2ccc(C(=O)O)cc2)CC1` [compound 2736, 4-(trans-4-(3-(2-fluorophenyl)-ureido)-cyclohexyloxy)-benzoic acid]: testing at 0.1 µM against Canine sEH gave an inhibition of 80%.
The compound `O=C(Nc1ccc(OC(F)(F)F)cc1)N[C@H]1CC[C@H](Oc2ccc(C(=O)O)cc2)CC1` [compound 1728, trans-4-{4-[3-(4-Trifluoromethoxy-phenyl)-ureido]-cyclohexyloxy}-benzoic acid] gave a half-life in “in vivo” of 1790 min. Besides, in [4], the Anisocytosis entry was “Slight”, the “Bilirubin Direct” value is 0.1 mg/dL, the Creatinine was determined as 1.1 mg/dL and the Echinocytes result is “Few”. In data set [4], the GGT is listed as 11 IU L^−1 and the SDH-37 stood at 0 IU L^−1.
Take `COc1ccc2c(c1)c(CC(=O)O)c(C)n2C(=O)c1ccc(Cl)cc1` [indomethacin]: in the data set on COX-2 / COX-1, the “COX-2 (IC50)/COX-1 (IC50) ratio” value is listed as 33.
As to `O=C(O)CNC(=O)c1ccc(O[C@H]2CC[C@H](NC(=O)Nc3ccc(OC(F)(F)F)cc3)CC2)cc1` [compound 2283, trans-2-(4-(4-(3-(4-trifluoromethoxy-phenyl)-ureido)-cyclohexyloxy)-benzamido)-acetic acid], the inhibition at 0.1 µM against Canine sEH was 64%.
`O=C(Nc1ccc(OC(F)(F)F)cc1)N[C@H]1CC[C@H](Oc2ccc(C(=O)NO)cc2)CC1` [compound 2761, N-hydroxy-4-(trans-4-(3-(4-(trifluoromethoxy)-phenyl)-ureido)-cyclohexyloxy)-benzamide] yielded an inhibition at 0.1 µM at Canine sEH of 72%.
For `CCCCCCCCCCCCNC(=O)NC12CC3CC(CC(C3)C1)C2` [ADU, N-Adamantyl-N′-dodecyl urea], the “activity as an inhibitor of sEH” value on sEH is “particularly high activity on sEH”.
As for `O=C(Nc1ccc(OC(F)(F)F)cc1)N[C@H]1CC[C@H](Oc2ccc(-c3nnn[nH]3)cc2)CC1` [compound 2806, 1-(trans-4-(4-(1H-tetrazol-5-yl)-phenoxy)-cyclohexyl)-3-(4-(trifluoromethoxy)-phenyl)-urea], the inhibition at 0.1 µM on Canine sEH was 99%.

Usually inhibition stands for the percentage by which the read-out fell short of the control. The half-life is the time in which the quantity being followed falls by half. Low readings indicate fast loss, high ones slow loss.
